Data: publication PMC6368365, “Didehydro-Cortistatin A Inhibits HIV-1 by Specifically Binding to the Unstructured Basic Region of Tat” (mBio, 2019)

Biological target: T1, Hexim-1 binding to 7SK snRNP (Homo sapiens, UniProt O94992)
T1 construct: endogenous in cells; host or cells: HeLa-CD4-LTR-LacZ (RNA immunoprecipitation); HeLa-CD4-LTR-Luc (immunofluorescence)
Assay: RNA immunoprecipitation of 7SK snRNP by intracellular Hexim-1
Format: cell-based
Settings: HeLa-CD4-LTR-LacZ cells, 48 h
From the text: (A) Sequence of the basic domains of HIV Tat HXB3, HIV Rev Bru and intracellular Hexim-1. […] Shown is confocal microscopy analysis of the subcellular localization of transfected FLAG-Tat or FLAG-Rev in the presence of DMSO or dCA in HeLa-CD4-LTR-Luc cells. Proteins were recognized with anti-FLAG and Alexa Fluor 568-tagged anti-IgG. Magnification 60×. Data are representative of n = 2 independent experiments. (C) Quantification of the nucleolar fluorescence of panel B using ImageJ. Data are the mean ± SEM from 3 to 4 different cells. […] HeLa-CD4-LTR-LacZ cells were infected with strain NL4-3 for 24 hours. The next day, compounds (dCA, 10 nM; KPT, 400 nM; and SCM, 10 nM) were added for 24 hours. Total, nuclear, and cytoplasmic mRNAs were extracted, and viral messages were determined by qRT-PCR. GAPDH was used for normalization. Data are the mean ± SD from n = 5 independent experiments. […] (G) Quantification of nuclear fluorescence of panel F using ImageJ. […] Statistical significance was determined using one-way ANOVA with post hoc Tukey’s test. ns, not significant; ***, P < 0.0001; **, P < 0.001.
Hexim-1 directly binds to cyclin T1 and is responsible for the inactivation of the kinase activity of P-TEFb ([35], [36]). […] Intracellular Hexim-1 was immunoprecipitated, and 7SK snRNP bound to Hexim-1 was extracted, reverse transcribed, and quantified by qRT-PCR as previously described ([42]) (Fig. 3E). […]

T1 sequence (O94992 whole entry): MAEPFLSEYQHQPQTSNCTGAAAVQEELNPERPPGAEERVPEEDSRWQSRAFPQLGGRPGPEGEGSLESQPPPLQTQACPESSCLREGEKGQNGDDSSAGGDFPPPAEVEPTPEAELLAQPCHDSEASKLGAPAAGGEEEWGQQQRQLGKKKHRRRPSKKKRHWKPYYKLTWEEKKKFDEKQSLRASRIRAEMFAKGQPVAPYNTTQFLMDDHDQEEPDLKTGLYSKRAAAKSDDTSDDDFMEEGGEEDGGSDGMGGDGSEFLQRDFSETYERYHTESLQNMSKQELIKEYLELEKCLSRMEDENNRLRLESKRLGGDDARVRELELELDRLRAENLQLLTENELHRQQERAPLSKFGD

Structure (SMILES): C[C@@](Cc1ccc(O)c(O)c1)(NN)C(=O)O.O [SCM, S-(−)-carbidopamonohydrate, reference compound]
- interaction between Hexim-1 and 7SK snRNP: similarly detected

Structure (SMILES): CN(C)C1CC23CCC4(O2)C(=CCC2(C)C(c5ccc6ccncc6c5)=CCC24)C=C3C(O)C1O (centres unmarked) [dCA, didehydro-cortistatin A]
- interaction between Hexim-1 and 7SK snRNP: similarly detected
